SMILES strings stand for the structures.

Data on one molecule can be found in US11020375B2, “Edaravone dosage form” (SUZHOU AUZONE BIOLOGICAL TECHNOLOGY CO., LTD, priority 2016, dated 2021).

The nature of series [1]: Screening drug carrier Soluplus and optimizing solid dispersion: solubility of Edaravone by HPLC. The format is physicochemical. Conditions: 1%-6% w/v carrier solutions, 24 hours at room temperature (FIG. 2).
Procedure: To separate glass vials, 1%, 2%, 3%, 4%, 5% and 6% w/v solutions of different carriers was added, respectively. An excess amount of Edaravone was added to the above mentioned solutions followed by continuous rotation using a mechanical shaker (Axyos Technologies, Brisbane, Australia) throughout the test for 24 hours at room temperature. After reaching equilibrium, each vial was centrifuged at 3000 rpm for 5 min, and excess insoluble Edaravone was discarded by filtration through 0.45 μm PVDF syringe filter. Subsequently, the filtrates were diluted using methanol. The solubility analysis was performed in triplicate by using the previously developed and validated HPLC method.
Series [2] in a line: Stability studies in simulated gastrointestinal fluids at various pHs. The format is physicochemical. The procedure:
Simulated gastrointestinal fluids (without enzymes and bile component) were prepared according to the USP methods. SGF (simulated gastric fluid) 1.2 pH (USP) and SIF (Simulating Intestinal fluid) 6.8 pH (USP) and 7.4 pH. To determine the chemical stability of SD formulations, the solutions in miliQ water was prepared and used. SD formulation was dissolved in aforesaid buffer solutions. Samples were collected at the predetermined time interval and filtered through 0.45 μm PVDF syringe filter. All samples were analysed in triplicate by HPLC.

On to `CC1=NN(c2ccccc2)C(=O)C1` [Edaravone, 3-methyl-1-phenyl-2-pyrazol-5-one], for which the “solubility of Edaravone in Soluplus carrier solutions” value in series [1] is “solubility improvement in concentration-dependent manner”. The “stability in biorelevant media” value in series [2] (acidic pH (FIG. 8A)) was “maintained substantially constant”; in series [2] (neutral to basic pH (FIG. 8A)), “significant degradation”.
